Consider 46 compounds from the Deep4Chem optical property database.

A short description of this data set: solvent given as SMILES.

SMILES strings stand for the structures. Values joined by “and” are separate entries in the source; they are usually repeats but may differ in a detail not shown here. Identical values can stand only once.

`CCCCCCCCCCCCN1C(=O)c2c(c3ccc4cc(-c5ccc(F)cc5)c(OC)cc4c3c3c2ccc2cc(-c4ccc(F)cc4)c(OC)cc23)C1=O` gave an absorption maximum (in ClCCl) of 431 nm.

Regarding `CCCc1ccc(C#Cc2cc(C#Cc3ccc(CCC)cc3)c3ccc4c(C#Cc5ccc(N(C)C)cc5)cc(C#Cc5ccc(CCC)cc5)c5ccc2c3c54)cc1`, where the note is “in ClCCl”, the absorption maximum was 473 nm.

Consider `N#CC1=C(c2ccc(-c3cccs3)s2)CC1`, for which the absorption maximum is, setting by setting: (in C1CCOC1) 366 nm; (in CC#N) 364 nm; (in CCCCCC) 361 nm; (in CCO) 367 nm; (in OCCOCCO) 371 nm; (in c1ccncc1) 372 nm.

`CCCCCCCCCCC(CCCCCCCCCC)Cn1c2cc(-c3ccc(C(C)(C)C)cc3)c3cccc4c5ccc6c7cc(-c8cc(C(C)(C)C)cc(C(C)(C)C)c8)n8c7c(c7cc1c(c5c76)c2c34)=C1C=CC(c2cc(C(C)(C)C)cc(C(C)(C)C)c2)=[N+]1[B-]8(F)F` yielded an absorption maximum (in Cc1ccccc1) of 780 nm.

Under “in ClC(Cl)Cl”, `CN(C)c1[se]c(-c2ccc(Cl)cc2)nc1-c1ccccc1` yielded an absorption maximum of 360 nm.

With `CCCCc1ccc(-n2c3c(c4c2c2c(n4-c4ccc(CCCC)cc4)-c4cc(F)ccc4NB2c2ccccc2)B(c2ccccc2)Nc2ccc(F)cc2-3)cc1`, the absorption maximum (in Cc1ccccc1) is listed as 395 nm.

On to `O=P1(c2ccccc2)C2=C(c3ccccc31)[Si](c1ccccc1)(c1ccccc1)c1cc(N(c3ccccc3)c3ccccc3)ccc12` (stereo not given), for which the absorption maximum is on record as 456 nm (in CC#N), 466 nm (in CO) and 459 nm (in Cc1ccccc1).

In turn, `CC1(C)c2ccccc2N(c2ccccc2)c2ccc(-c3ccc(S(=O)(=O)c4ccc(-c5ccc6c(c5)C(C)(C)c5ccccc5N6c5ccccc5)cc4)cc3)cc21` showed an absorption maximum (in Cc1ccccc1) of 363.38 nm.

Turning to `Cc1cc2c(o1)c(C)cc1ccc(=O)oc12`, the absorption maximum reads like this: (in C1CCCCC1) 330 nm; (in C1COCCO1) 315 nm; (in CC#N) 315 nm; (in CCO) 305 nm; (in OCC(F)(F)F) 310 nm.

Turning to `CCCC1=Cc2nc1ccc1[nH]c(cc1CCO)c1nc(ccc3[nH]c2cc3CCC)C(CCO)=C1`, where the note is “in Cc1ccccc1”, the absorption maximum is 638 nm.

`C=Cc1cc2ccc(OC)cc2oc1=O` gave an absorption maximum (in CC#N) of 333 nm.

Compound `C[Si](C)(C)c1sc([Si](C)(C)C)c2c1sc1ccsc12` displayed an absorption maximum (in ClC(Cl)Cl) of 310 nm.

Compound `c1ccc(-c2c3ccccc3c(-c3ccc4ccccc4c3)c3ccccc23)nc1` showed an absorption maximum (in ClCCl) of 375 nm.

Turning to `COc1ccccc1-c1c2ccc(=[N+]3CCCCC3)cc-2oc2cc(N3CCCCC3)ccc12`, the absorption maximum runs as follows: (in CCO) 564 nm; (in ClCCl) 566 nm.

In turn, `CCCCOc1ccc(-c2cc3c(o2)c(-c2ccc(OCCCC)cc2)c2n3[B-](F)(F)[N+]3=Cc4c(-c5ccc(OCCCC)cc5)c5oc(-c6ccc(OCCCC)cc6)cc5n4[B-](F)(F)[N+]3=C2)cc1` gave an absorption maximum (in C1CCOC1) of 619 nm; an absorption maximum (in CN(C)C=O) of 620 nm; an absorption maximum (in CS(C)=O) of 625 nm; an absorption maximum (in Cc1ccccc1) of 626 nm; an absorption maximum (in ClC(Cl)Cl) of 624 nm; an absorption maximum (in ClCCl) of 622 nm.

For the compound `CCN(CC)c1ccc(/N=N/c2nc3ccc(OC)cc3s2)cc1`, the absorption maximum runs as follows: (in CC#N) 515 nm; (in ClCCl) 517 nm.

With `COc1ccc(-c2ccc(-c3ccccc3)cc2)cc1`, for the setting “in C1CCCCC1”, the absorption maximum stood at 291 nm.

Regarding `O=P1(c2ccccc2)C(c2ccc(C(F)(F)F)cc2)=Cc2ccccc21` (stereo not given), under “in C1CCOC1”, the absorption maximum was 342 nm.

Take `CCN(CC)c1ccc2cc(-c3nc4c5cccc6ccc7cccc(c7c65)c4n3-c3ccc(C(C)(C)C)cc3)c(=O)oc2c1`: the absorption maximum (in ClCCl) is reported as 410 nm.

For `COc1ccc(C(=Cc2ccc(/C=C(\C#N)c3ccccc3)cc2)c2ccc(OC)cc2)cc1`, the absorption maximum (in C1CCOC1) is 388 nm.

For `C[C@]12SC(=O)C=C1c1nc(-c3ccc(Cl)cc3Cl)[nH]c1C1=CC(=O)S[C@@]12C`, under “in CC#N”, the absorption maximum is 475 nm.

Under “in ClCCl”, `F[B-]1(F)n2c(Oc3ccccc3)c(Cl)c(Br)c2C(Oc2ccccc2)=C2C(Br)=C(Cl)C(Oc3ccccc3)=[N+]21` came in with an absorption maximum of 533 nm.

Turning to `O=[N+]([O-])c1ccc(/C2=C3N=C(C(c4ccccc4)=C/3c3ccccc3)/C(c3ccc([N+](=O)[O-])cc3)=c3\[nH]/c(c(-c4ccccc4)c3-c3ccccc3)=C(/c3ccc([N+](=O)[O-])cc3)C3=N/C(=C(/c4ccc([N+](=O)[O-])cc4)c4[nH]c2c(-c2ccccc2)c4-c2ccccc2)C(c2ccccc2)=C3c2ccccc2)cc1`, under “in ClCCl”, the absorption maximum worked out at 711 nm.

`CCCCN1C(=O)C2=C(c3ccc(-c4ccccc4)cc3)[N-]C(=O)C2=C1c1ccc(-c2ccccc2)cc1` came in with an absorption maximum (in ClCCl) of 585 nm.

Take `CN(C)c1ccc(/C=C/C=C/c2ccncc2)cc1`: the absorption maximum runs as follows: (in C1COCCO1) 392 nm; (in CC#N) 392 nm; (in CCCCCCC) 383 nm; (in CO) 394 nm.

The compound `c1ccc(C2c3ccccc3-c3cc4c(cc32)-c2ccccc2C4c2ccccc2)cc1` (stereo not given) displayed an absorption maximum (in ClCCl) of 328 nm.

Compound `Cc1ccc2nc3[nH]c(=O)[nH]c(=O)c3nc2c1` had an absorption maximum (in CC#N) of 382 nm and an absorption maximum (in ClCCCl) of 384 nm.

Turning to `C(=C\c1nc2c3ccccc3c3ccccc3c2o1)/c1ccccc1`, the absorption maximum (in CC#N) worked out at 364 nm.

Regarding `CCCCCCN1C(=O)c2cccc3cc(/N=C\c4cnc5ccccc5c4)cc(c23)C1=O`, the absorption maximum (in ClC(Cl)Cl) was found to be 328 nm.

For the setting “in O=P(c1ccccc1)(c1ccccc1)c1ccccc1Oc1ccccc1P(=O)(c1ccccc1)c1ccccc1”, `N#Cc1c(-c2ccc(N(c3ccccc3)c3ccccc3)cc2)c(C#N)c(-c2ccc(N(c3ccccc3)c3ccccc3)cc2)c(C#N)c1-c1ccc(N(c2ccccc2)c2ccccc2)cc1` registered an absorption maximum of 420 nm.

With `c1ccc2ccccc2c1`, under “in C1CCCCC1”, the absorption maximum is 291.46 nm and 286 nm.

In the case of `CC(C)(C)c1ccc2c(c1)c1cc(C(C)(C)C)ccc1n2-c1ccccc1-c1nc(-c2ccccc2-n2c3ccc(C(C)(C)C)cc3c3cc(C(C)(C)C)ccc32)nc(-c2ccccc2P(=O)(c2ccccc2)c2ccccc2)n1`, the absorption maximum is recorded as 343.17 nm (in C1CCOC1); 340.7 nm (in CC#N); 343.17 nm (in CC(C)=O); 343.17 nm (in CN(C)C=O); 340.7 nm (in Cc1ccccc1); 343.17 nm (in ClC(Cl)Cl). The absorption maximum (in ClCCl) was 343.17 nm.

In turn, `F[B-]1(F)Oc2ccc(Br)cc2-c2c3c(c4c([n+]21)CCc1ccccc1-4)CCc1ccccc1-3` gave an absorption maximum (in ClCCl) of 347 nm.

Turning to `CN(C)c1c2ccccc2cc2ccccc12`, the absorption maximum is, setting by setting: (in C1CCCCC1) 386 nm; (in C1CCOC1) 386 nm; (in C1COCCO1) 387 nm; (in CC#N) 386 nm; (in CCO) 385 nm; (in CN(C)C=O) 388 nm. Besides, the absorption maximum is, setting by setting: (in CO) 384 nm; (in COCCOC) 386 nm; (in CS(C)=O) 390 nm; (in O) 385 nm; (in OCC(O)CO) 393 nm; (in OCCO) 388 nm.

Regarding `CN(C)c1ccc(-c2ccc(-c3cc(-c4ccccc4)c(-c4ccccc4)c(-c4ccccc4)c3-c3ccccc3)s2)cc1`, the absorption maximum (in ClC(Cl)Cl) is listed as 362 nm.

For `N#Cc1c(N2CCCC2)cc(-c2ccccc2)c2c1-c1cccc3cccc-2c13`, the absorption maximum (in O) was 428 nm.

Consider `O=P(c1ccccc1)(c1ccccc1)n1c2ccccc2c2cc(-n3c4ccccc4c4ccccc43)ccc21`, for which, for the setting “in C1CCOC1”, the absorption maximum was 340 nm.

For `COc1ccc(C2=C3C(/C=C/c4cc(OC)c(OC)c(OC)c4)=C(C=O)C(/C=C/c4cc(OC)c(OC)c(OC)c4)=[N+]3[B-](F)(F)n3c(/C=C/c4cc(OC)c(OC)c(OC)c4)c(C=O)c(C=Cc4cc(OC)c(OC)c(OC)c4)c32)cc1`, the absorption maximum (in ClCCl) is 688 nm.

Take `O=c1oc2ccccc2cc1-c1cn2ccccc2n1`: the absorption maximum (in ClC(Cl)Cl) is reported as 349 nm.

Turning to `c1cc2ccc3ccc(-n4c5ccccc5c5ccccc54)c4ccc(c1)c2c34`, the absorption maximum turned out to be 344 nm (in CCCCCC), 344 nm (in CCO), 344 nm (in CCOC(C)=O) and 347 nm (in ClCCl).

`O=C1C2=C3c4ccsc4C=CN3C(=O)C2=C2c3ccsc3C=CN12`: the absorption maximum (in CN(C)C=O) is reported as 575 nm and the absorption maximum (in ClC(Cl)Cl) came out at 575 nm.

In turn, `c1ccc(-c2nc(-c3ccccc3)nc(-c3ccc(-n4c5ccccc5c5cc(-n6c7ccccc7c7ccccc76)ccc54)cc3)n2)cc1` returned an absorption maximum (in Cc1ccccc1) of 367 nm.

`CCC1(CC)c2ccccc2-c2c1c1c(c3c2C(CC)(CC)c2cc(/C=C/c4cccs4)ccc2-3)C(CC)(CC)c2cc(/C=C/c3cccs3)ccc2-1` came in with an absorption maximum (in C1CCOC1) of 382 nm.

Turning to `F[B-]1(F)n2c(ccc2N2CCOCC2)C(c2ccccc2)=C2C=CC(N3CCOCC3)=[N+]21`, the absorption maximum stood at 566 nm (in CC#N); 573 nm (in CCCCCC); 570 nm (in CCOC(C)=O); 561 nm (in CO); 572 nm (in ClCCl).

In turn, `Cc1ccc(-c2cccc3ncc(-c4ccccc4)n23)cc1` yielded an absorption maximum (in ClCCl) of 341 nm.

For `N#Cc1c(-c2ccccc2)cc(-c2ccccc2)[nH]c1=S`, the absorption maximum (in C1COCCO1) stood at 446 nm; the absorption maximum (in CC#N) stood at 434 nm; the absorption maximum (in CCCCO) is 441 nm; the absorption maximum (in CCCO) is 431 nm; the absorption maximum (in CCO) was 407 nm; the absorption maximum (in CCOC(C)=O) stood at 430 nm. In addition, the absorption maximum is recorded as 451 nm (in CCOCC) and 439 nm (in CN(C)C=O).
